Measured values taken from article PMC8272148, “Antioxidant Serine-(NSAID) Hybrids with Anti-Inflammatory and Hypolipidemic Potency” (Molecules, 2021).
Marks after values point to notes of the source that are not given here.

Assays:
[1] = system: carrageenan-induced rat paw edema; test: Carrageenan-induced rat paw edema; type: in vivo, Wistar rats; conditions: ip, 0.15 mmol/kg i.p., 3.5 h after carrageenan, vs controls, read-out: % Edema Reduction
Protocol: An amount of 0.1 mL of an aqueous carrageenan solution (1% w/v) was injected into the hind paw of adult Wistar rats (6 rats were used for each compound). The tested compounds (in water with a few drops of Tween 80) were administered i.p. (0.15 mmol/kg) 5 min before the carrageenan administration. The produced edema, after 3.5 h, was estimated as paw weight increase.

[2] = Interaction with the stable radical DPPH; conditions: DPPH 200 μM, after 30 min
Protocol: Compounds, dissolved in absolute ethanol, at concentrations of 25–200 μM, were added to an equal volume of an ethanolic solution of DPPH (final concentration 200 μM) at room temperature (22 ± 2 °C). Absorbance (517 nm) was recorded after 30 min [26]. For the calculation of percent interaction, the residual absorbance of DPPH Ai (at a fixed concentration) after its interaction with the examined compounds (at various concentrations) was compared with the control absorbance Ao, without the addition of compounds, following the equation: (1) Percent interaction=100−(Ai/Ao×100)

[3] = system: Triton WR1339 (tyloxapol)-induced hyperlipidemia; test: Triton WR1339 (tyloxapol)-induced hyperlipidemia in rats; type: in vivo, Wistar rats; conditions: 150 μmol/kg i.p., rat plasma, 24 h, tyloxapol 200 mg/kg i.p.
Protocol: The examined compounds (0.15 mmol/kg) were administered i.p. one hour later. Blood was taken from the aorta after 24 h, for the determination of plasma total cholesterol, LDL cholesterol and triglyceride concentration, using commercial kits.

[4] = system: rat hepatic microsomal membrane lipid peroxidation; test: Inhibition of rat hepatic microsomal membrane lipid peroxidation (ferrous ascorbate induced, TBA reactive material); type: biochemical; conditions: rat hepatic microsomal membrane, after 45 min of incubation
Protocol: The peroxidation of the heat-inactivated rat hepatic microsomal fraction was induced by ferrous ascorbate. The studied compounds, in dimethylsulfoxide, were added at concentrations of 1 μM–1 mM. Aliquots were taken from the incubation mixture (37 °C) for 45 min. Lipid peroxidation was assessed spectrophotometrically (535/600 nm) as a 2-thiobarbituric acid reactive material. The incubation mixture and solvents were found not to interfere with the assay.

soybean lipoxygenase 1-B = molecular target: T1, soybean lipoxygenase 1-B (Glycine max, UniProt P08170); test: In vitro inhibition of soybean lipoxygenase; type: biochemical; conditions: 100 μM compound, linoleic acid (100 μM) as substrate, after 7 min of incubation; read-out: Lipoxygenase percent inhibition at 100 μM
T1 sequence (P08170 1-839): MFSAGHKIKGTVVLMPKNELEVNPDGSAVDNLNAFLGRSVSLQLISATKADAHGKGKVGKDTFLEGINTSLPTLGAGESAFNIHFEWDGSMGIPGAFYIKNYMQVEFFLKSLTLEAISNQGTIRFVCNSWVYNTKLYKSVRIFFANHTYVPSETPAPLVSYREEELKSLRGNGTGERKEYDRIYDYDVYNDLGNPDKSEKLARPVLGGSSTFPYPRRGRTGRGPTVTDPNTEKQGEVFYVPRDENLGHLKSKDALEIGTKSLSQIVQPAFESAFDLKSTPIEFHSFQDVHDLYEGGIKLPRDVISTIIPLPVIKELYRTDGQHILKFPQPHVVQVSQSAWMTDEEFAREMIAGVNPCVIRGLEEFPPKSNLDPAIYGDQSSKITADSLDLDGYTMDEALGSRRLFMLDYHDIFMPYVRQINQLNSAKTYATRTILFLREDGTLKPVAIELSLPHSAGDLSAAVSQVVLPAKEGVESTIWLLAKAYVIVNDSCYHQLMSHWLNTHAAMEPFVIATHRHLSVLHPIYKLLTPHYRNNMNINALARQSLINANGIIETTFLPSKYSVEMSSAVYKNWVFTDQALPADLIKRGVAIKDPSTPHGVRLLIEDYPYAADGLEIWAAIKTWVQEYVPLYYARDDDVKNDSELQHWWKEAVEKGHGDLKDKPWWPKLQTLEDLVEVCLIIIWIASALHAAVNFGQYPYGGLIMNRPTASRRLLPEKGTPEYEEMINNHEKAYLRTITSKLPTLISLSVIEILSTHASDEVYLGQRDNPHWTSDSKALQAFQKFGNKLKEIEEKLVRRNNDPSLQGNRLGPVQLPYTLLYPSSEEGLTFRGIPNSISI
Protocol: The reaction mixture contained the test compounds, dissolved in absolute ethanol (0.1 mL) at various concentrations, or the solvent (control, 0.1 mL), soybean lipoxygenase dissolved in 0.9% NaCl solution (250 u/mL, 0.2 mL) and sodium linoleate (100 μM) in Tris–HCl buffer, pH 9.0 (2.7 mL). The reaction was followed for 7 min at 28 °C, recording the absorbance of a conjugated diene structure at 234 nm, due to the formation of 13-hydroperoxy-linoleic acid. […] For the estimation of the type of inhibition, the above experiments were repeated, using sodium linoleate at 1 mM, which is higher than the saturating substrate concentration.

IC50 [4]: 7.3 µM
inhibition at 100 µM (soybean lipoxygenase 1-B): 15%
Structure (SMILES): CCOC(=O)C(CO)NC(=O)C1(C)CCc2c(C)c(O)c(C)c(C)c2O1 (stereo not shown) [Compound 4, Ethyl 3-hydroxy-2-(6-hydroxy-2,5,7,8-tetramethylchroman-2-carboxamido)propanoate]
inhibition in vivo at 150 µmol/kg [1]: 37%
Percent Interaction with DPPH ([2]; compound 25 μM): 24.5%
Percent Interaction with DPPH ([2]; compound 50 μM): 53.3%
Percent Interaction with DPPH ([2]; compound 100 μM): 88.2%
Percent Interaction with DPPH ([2]; compound 200 μM): 92.4%
% Reduction LDL-C (LDL cholesterol) [3]: 60.2 * %
% Reduction TC (total cholesterol) [3]: 46.2 ** %
% Reduction TG (triglycerides) [3]: 53.4 ** %
